Tests used:
Format in all cases: cell-based
[1] = tested on: HCC827 human NSCLC adenocarcinoma cells; experiment: Cell proliferation assay, HCC827 (mutant ERBB1, exon 19 deletion); details: for GI50: Homo sapiens, HCC827, 72 hrs compound treatment
Protocol: (§1) The biological activity of a test compound was determined using cell proliferation assays. The activity against wild-type ERBB1 was determined using A431 human epidermoid carcinoma cells (ATCC) and human epidermal keratinocytes, neonatal, or HEKn cells (ATCC).
(§2) A431 cells were grown in DMEM (Invitrogen) supplemented with 10% FBS (Lonza), 1% penicillin-streptomycin, and 2 mM glutamine (Invitrogen). HEKn cells were grown in EPILIFE® (Invitrogen) supplemented with HKGS (Invitrogen). […] Cells were maintained and propagated at 37° C. and 5% CO2 in a humidified cell culture incubator. Aliquots of cells from early passages were preserved for liquid nitrogen storage. Frozen vials of cells were thawed at 37° C. water bath. Cells were spun to remove freezing medium. The newly revived frozen cells were adapted in culture for 10 days before used for compound testing. Cells used in the assay were less than 20 subculture passages or 3 months in culture.
(§3) The test compounds were dissolved in dimethylsulfoxide (DMSO) and stored at −20° C. before testing. […] The cells were placed in a culture incubator overnight. Next day, test compounds in DMSO were added to the cells and placed back in the culture incubator for 72 hrs. In the meantime, the cell numbers at time zero of the compound treatment (T0) was measured by EnerCount (Codex BioSolutions). At the end of the compound treatment, the cell numbers were again measured by EnerCount as T72 values. The untreated controls (Ctrl) were cell numbers recorded from the 0.1% DMSO treatment. The percent growth inhibition by the test compound was calculated by the formula: (1−(T72−T0)/(Ctrl−T0))×100.
(§4) The results are summarized in Tables 1 and 2, wherein A represents a value no greater than 500 nM, B represents a value greater than 500 nM but no greater than 1 μM, C represents a value greater than 1 μM but no greater than 5 μM, and D represents a value greater than 5 μM; and wherein A′ represents a ratio of greater than 10, B′ represents a ratio of no greater than 10 but no less than 5, C′ represents a ratio of no greater than 5 but no less than 2, and D′ represents a ratio of no greater than 2.

[2] = tested on: H1975 human NSCLC adenocarcinoma cells; experiment: Cell proliferation assay, H1975 (drug-resistant mutant ERBB1, T790M/L858R); details: for GI50: Homo sapiens, NCI-H1975, 72 hrs compound treatment
Protocol: as §1, §2, §3, §4

[3] = tested on: human epidermal keratinocytes, neonatal, or HEKn cells; experiment: Cell proliferation assay, HEKn (wild-type ERBB1); details: Keratinocyte, 72 hrs compound treatment
Protocol: as §1, §2, §3, §4

[4] = tested on: A431 human epidermoid carcinoma cells; experiment: Cell proliferation assay, A431 (wild-type ERBB1); details: A-431, 72 hrs compound treatment, class symbols
Protocol: as §1, §2
as §3, with “(1−(T72−T0)/(Ctrl−T0))×100. […]” for “(1−(T72−T0)/(Ctrl−T0))×100.”

SMILES	GI50 ([1]; class symbols)	GI50 ([2]; class symbols)	GI50 ([3]; class symbols)	GI50 [4]	GI50 ([1]; numeric values, unit inferred)	Selectivity Ratio (Wild-type ERBB1/Mutant ERBB1) HEKn/HCC827 ([1]; ratio of GI50 HEKn/HCC827)	GI50 ([2]; numeric values, unit inferred)	Selectivity Ratio (Wild-type ERBB1/Mutant ERBB1) HEKn/H1975 ([2]; ratio of GI50 HEKn/H1975)	GI50 ([3]; numeric values, unit inferred)
C=CC(=O)N1CCCC[C@@H](n2c(NC(=O)c3ccnc(C)c3)nc3ccc4c(c32)OCCO4)C1 [C1, (R)—N-(1-(1-acryloylazepan-3-yl)-7,8-dihydro-1H-[1,4]dioxino[2′,3′:3,4]benzo[1,2-d]imidazol-2-yl)-2-methylisonicotinamide]	< 0.5 µM	< 0.5 µM	1 to 5 µM	1 to 5 µM					
C=CC(=O)N1CCCC[C@@H](n2c(NC(=O)c3ccnc(OC)c3)nc3ccc4c(c32)OCCO4)C1 [C2, (R)—N-(1-(1-acryloylazepan-3-yl)-7,8-dihydro-1H-[1,4]dioxino[2′,3′:3,4]benzo[1,2-d]imidazol-2-yl)-2-methoxyisonicotinamide]	< 0.5 µM	< 0.5 µM	1 to 5 µM	1 to 5 µM					
C=CC(=O)N1CCCC[C@@H](n2c(NC(=O)c3ccnc(C(F)(F)F)c3)nc3ccc4c(c32)OCCO4)C1 [B1, (R)—N-(1-(1-acryloylazepan-3-yl)-7,8-dihydro-1H-[1,4]dioxino[2′,3′:3,4]benzo[1,2-d]imidazol-2-yl)-2-(trifluoromethyl)isonicotinamide]	< 0.5 µM	< 0.5 µM	> 5 µM	1 to 5 µM					
C=CC(=O)Nc1cccc(Nc2nc(Nc3ccc(N4CCN(C(C)=O)CC4)cc3OC)ncc2C(F)(F)F)c1 [CO-1686, reference compound]					0.032 µM	A′ (A′ represents a ratio of greater than 10)	0.109 µM	A′ (A′ represents a ratio of greater than 10)	2.5 µM

From US11713322B2, “Benzimidazole derivatives as ERBB tyrosine kinase inhibitors for the treatment of cancer” (Capella Therapeutics, Inc., priority 2014, dated 2023)
